Reference: patent US7244738B2, “Arylamine-substituted quinazolinone compounds useful as alpha 1A/B adrenergic receptor antagonists” (Roche Palo Alto LLC, priority 2003, dated 2007)

SMILES	melting point [°C]
COc1cc2[nH]c(N(C)Cc3cccc(CN4CCC(O)CC4)c3)nc(=O)c2c(C)c1OC [Example 40, 2-{[3-(4-Hydroxy-piperidin-1-ylmethyl)-benzyl]-methyl-amino}-6,7-dimethoxy-5-methyl-1H-quinazolin-4-one]	159.2 to 159.6
CCNCc1cccc(CN(C)c2nc(=O)c3c(OC)c(OC)c(OC)cc3[nH]2)c1 [Example 43, 2-[(3-Ethylaminomethyl-benzyl)-methyl-amino]-5,6,7-trimethoxy-1H-quinazolin-4-one]	133.9 to 134.7
COc1cc2[nH]c(N(C)Cc3ccc4c(c3)CN(C)C4)nc(=O)c2c(OC)c1OC [Example 45, 5,6,7-Trimethoxy-2-[methyl-(2-methyl-2,3-dihydro-1H-isoindol-5-ylmethyl)-amino]-1H-quinazolin-4-one]	165.5 to 166.5
COc1cc2[nH]c(N(C)Cc3cccc(CN4CCCC4)c3)nc(=O)c2c(OC)c1OC [Example 46, 5,6,7-Trimethoxy-2-[methyl-(3-pyrrolidin-1-ylmethyl-benzyl)-amino]-1H-quinazolin-4-one]	127 to 129.9
COc1cc2[nH]c(N(C)Cc3cccc(CN4CCC4)c3)nc(=O)c2c(OC)c1OC [Example 47, 2-[(3-Azetidin-1-ylmethyl-benzyl)-methyl-amino]-5,6,7-trimethoxy-1H-quinazolin-4-one]	131.3 to 133.1
COc1cc2[nH]c(N(C)Cc3ccc(OCCCN(C)C)cc3)nc(=O)c2c(OC)c1OC [Example 48, 2-{[4-(3-Dimethylamino-propoxy)-benzyl]-methyl-amino}-5,6,7-trimethoxy-1H-quinazolin-4-one]	108 to 111
COc1cc2[nH]c(N(C)Cc3cccc(CN4CCC(O)C4)c3)nc(=O)c2c(C)c1OC (centres unmarked) [Example 49, 2-{[3-(3-Hydroxy-pyrrolidin-1-ylmethyl)-benzyl]-methyl-amino}-6,7-dimethoxy-5-methyl-1H-quinazolin-4-one]	148 to 149.8
COc1cc2[nH]c(N(C)Cc3cccc(N=C4N(C)CCN4C)c3)nc(=O)c2c(C)c1OC [Example 50, 2-{[3-(1,3-Dimethyl-imidazolidin-2-ylidenmeamino)-benzyl]-methyl-amino}-6,7-dimethoxy-5-methyl-1H-quinazoline-4-one]	200.2 to 204.4
COc1cc2[nH]c(N(C)Cc3cccc(CN4CCC(O)C4)c3)nc(=O)c2c(OC)c1OC (centres unmarked) [Example 51, 2-{[3-(3-Hydroxy-pyrrolidin-1-ylmethyl)-benzyl]-methyl-amino}-5,6,7-trimethoxy-1H-quinazolin-4-one]	174.3 to 176.4
CNCC(=O)N(C)C(C)c1cccc(CN(C)c2nc(=O)c3c(C)c(OC)c(OC)cc3[nH]2)c1 (centres unmarked) [Example 52, N-[1-(3-{[(6,7-Dimethoxy-5-methyl-4-oxo-1,4-dihydro-quinazolin-2-yl)-methyl-amino]-methyl}-phenyl)-ethyl]-N-methyl-2-methylamino-acetamide]	118.1 to 120.8
COc1cc2[nH]c(N(C)Cc3cccc(/N=C(\C)N(C)C)c3)nc(=O)c2c(C#N)c1OC [Example 53, N′-(3-{[(5-Cyano-6,7-dimethoxy-4-oxo-1,4-dihydro-quinazolin-2-yl)-methyl-amino]-methyl}-phenyl)-N,N-dimethyl-acetamide]	222.1 to 226.9
COCCN(C)C(C)c1cccc(CN(C)c2nc(=O)c3c(C)c(OC)c(OC)cc3[nH]2)c1 (centres unmarked) [Example 54, 6,7-Dimedthoxy-2-[(3-{1-[(2-methoxy-ethyl)-methyl-amino]-ethyl}-benzyl)-methyl-amino]-5-methyl-1H-quinazolin-4-one]	114.5 to 116.9
COc1cc2[nH]c(N(C)Cc3cccc(CN(C)C)c3)nc(=O)c2c(C)c1OC [Example 56, 2-[(3-Dimethylaminomethyl-benzyl)-methyl-amino]-6,7-dimethoxy-5-methyl-1H-quinazolin-4-one]	174.9 to 176
COc1cc2[nH]c(N(C)Cc3cccc(N4C(=O)CN(C)C4=O)c3)nc(=O)c2c(C)c1OC [Example 60, 3-(3-{[(6,7-Dimethoxy-5-methyl-4-oxo-1,4-dihydro-quinazolin-2-yl)-methyl-amino]-methyl-}-phenyl)-1-methyl-imidazolidine-2,4-dione]	209.3 to 210.8
COc1cc2[nH]c(N(C)Cc3cccc(C(C)N(C)C)c3)nc(=O)c2c(C)c1OC (centres unmarked) [Example 61, 2-{[3-(1-Dimethylamino-ethyl)-benzyl]-methyl-amino}-6,7-dimethoxy-5-methyl-1H-quinazolin-4-one]	137 to 140.1
COc1cc2[nH]c(N(C)Cc3cccc(C(C)N(C)C)c3)nc(=O)c2c(OC)c1OC (centres unmarked) [Example 62, 2-{[3-(1-Dimethylamino-ethyl)-benzyl]-methyl-amino}-5,6,7-trimethoxy-1H-quinazolin-4-one]	122.6 to 125.5
CNC(C)c1cccc(CN(C)c2nc(=O)c3c(OC)c(OC)c(OC)cc3[nH]2)c1 (centres unmarked) [Example 63, 5,6,7-Trimethoxy-2-{methyl-[3-(1-methylamino-ethyl)-benzyl]-amino}-1H-quinazolin-4-one]	131.8 to 134.4
CNC(C)c1cccc(CN(C)c2nc(=O)c3c(C)c(OC)c(OC)cc3[nH]2)c1 (centres unmarked) [Example 64, 6,7-Dimethoxy-5-methyl-2-{methyl[3-(1-methylamino-ethyl)-benzyl]-amino}-1H-quinazolin-4-one]	161.6 to 164.1

SMILES	melting point [°C]
COc1cc2[nH]c(N(C)Cc3cccc(N4C(=O)CC(C)C4=O)c3)nc(=O)c2c(C)c1OC (centres unmarked) [Example 65, 1-(3-{[(6,7-Dimethoxy-5-methyl-4-oxo-1,4-dihydro-quinazolin-2-yl)-methyl-amino]-methyl}-phenyl)-3-methyl-pyrrolidine-2,5-dione]	217.8 to 219.2
COc1cc2[nH]c(N(C)Cc3cccc(CNC4CC4)c3)nc(=O)c2c(C)c1OC [Example 66, 2-[(3-Cyclopropylaminomethyl-benzyl)-methyl-amino]-6,7-dimethoxy-5-methyl-1H-quinazolin-4-one]	144.5 to 147.6
COc1cc2[nH]c(N(C)Cc3cccc(CNC(C)C)c3)nc(=O)c2c(C)c1OC [Example 67, 2-{[3-(Isopropylamino-methyl)-benzyl]-methyl-amino}-6,7-dimethoxy-5-methyl-1H-quinazolin-4-one]	143.3 to 144.4
CCCN(C)Cc1cccc(CN(C)c2nc(=O)c3c(C)c(OC)c(OC)cc3[nH]2)c1 [Example 68, 6,7-Dimethoxy-5-methyl-2-(methyl-{3-[(methyl-propyl-amino)-methyl]-benzyl}-amino)-1H-quinazolin-4-one]	128.1 to 129.1
CNCc1cccc(CNc2nc(=O)c3c(C)c(OC)c(OC)cc3[nH]2)c1 [Example 69, 6,7-Dimethoxy-5-methyl-2-(3-methylaminomethyl-benzylamino)-1H-quinazolin-4-one]	142.5 to 142.9
COc1cc2[nH]c(N(C)Cc3cccc(/N=C(\C)N(C)C)c3)nc(=O)c2cc1OC [Example 70, N′-(3-{[(6,7-Dimethoxy-4-oxo-1,4-dihydro-quinazolin-2-yl)-methyl-amino]-methyl}-phenyl)-N,N-dimethyl-acetamidine]	221.8 to 223
CCN(C)Cc1cccc(CN(C)c2nc(=O)c3c(C)c(OC)c(OC)cc3[nH]2)c1 [Example 71, 2-({3-[(Ethyl-methyl-amino)-methyl]-benzyl}-methyl-amino)-6,7-dimethoxy-5-methyl-1H-quinazolin-4-one]	146.7 to 150.8
COc1cc2[nH]c(NCc3cccc(/N=C(\C)N(C)C)c3)nc(=O)c2c(C)c1OC [Example 72, N′-{3-[(6,7-Dimethoxy-5-methyl-4-oxo-1,4-dihydro-quinazolin-2-ylamino)-methyl]-phenyl}-N,N-dimethyl-acetamide]	173 to 175
COc1ccnc(N2CCN(c3nc(=O)c4c(OC)c(OC)c(OC)cc4[nH]3)CC2)c1 [Example 73, 5,6,7-Trimethoxy-2-[4-(4-methoxy-pyridin-2-yl)-piperazin-1-yl]-1H-quinazolin-4-one]	229 to 231
COc1cc2c(=O)nc(N(C)Cc3cccc(/N=C(\C)N(C)C)c3)[nH]c2cc1Cl [Example 74, N′-(3-{[(7-Chloro-6-methoxy-4-oxo-1,4-dihydro-quinazolin-2-yl)-methyl-amino]-methyl}-phenyl)-N,N-dimethyl-acetamide]	185.4 to 191.9
COc1cc2[nH]c(N(C)Cc3cccc(N4CCC(C)C4=O)c3)nc(=O)c2c(OC)c1OC (centres unmarked) [Example 75, 5,6,7-Trimethoxy-2-{methyl-[3-(3-methyl-2-oxo-pyrrolidin-1-yl)-benzyl]-amino}-1H-quinazolin-4-one]	156.4 to 162
COc1cc2[nH]c(N(C)Cc3cccc(N4CCNC4=O)c3)nc(=O)c2c(C)c1OC [Example 76, 6,7-Dimethoxy-5-methyl-2-{methyl-[3-(2-oxo-imidazolidin-1-yl)-benzyl]-amino}-1H-quinazolin-4-one]	265 to 266
COCCNCc1cccc(CN(C)c2nc(=O)c3c(C)c(OC)c(OC)cc3[nH]2)c1 [Example 77]	150 to 152.1
COc1cc2[nH]c(N(C)Cc3cccc(NC4=NCCC4)c3)nc(=O)c2cc1OC [Example 87, 2-{[3-(4,5-Dihydro-3H-pyrrol-2-ylamino)-benzyl]-methyl-amino}-6,7-dimethoxy-1H-quinazolin-4-one]	211 to 214
COc1cc2[nH]c(N(C)Cc3cccc(NC4=NCCN4)c3)nc(=O)c2cc1OC [Example 89, 2-{[3-(4,5-Dihydro-1H-imidazol-2-ylamino)-benzyl]-methyl-amino}-6,7-dimethoxy-1H-quinazolin-4-one]	163.8 to 176.9
COc1cc2[nH]c(N(C)Cc3cccc(N4C=NC(C)(C)C4)c3)nc(=O)c2cc1OC [Example 90, 2-{[3-(4,4-Dimethyl-4,5-dihydro-imidazol-1-yl)-benzyl]-methyl-amino}-6,7-dimethoxy-1H-quinazolin-4-one]	240 to 242
COc1cc2[nH]c(N(C)CCc3cccc(/N=C(\C)N(C)C)c3)nc(=O)c2cc1OC [Example 91, N′-(3-{2-[(6,7-Dimethoxy-4-oxo-1,4-dihydro-quinazolin-2-yl)-methyl-amino]-ethyl}-phenyl)-N,N-dimethyl-acetamidine]	135 to 138.1
